Results reported in US7491849B2, “Oligoamine compounds and derivatives thereof for cancer therapy” (priority 2001, dated 2009).

Assays:
[1] = tested on: PC-3 Cells; test: Colony forming assay (CFE), PC-3 cells; type: cell-based; details: ca. 1.5-2 μM, 5 days incubation, FIG. 2
Procedure: Assessment of Oligoamine Cytotoxicity by Colony Forming Assay. The cytotoxicity of the oligoamines was further assayed by the colony forming assay (CFE). Four saturated oligoamines were chosen for their ability to kill DuPro cells after 5 days of incubation. Oligoamines SL-11159, SL-11175 and SL-11226 had over 4 logs of cell kill on day 5 of treatment at 1-2 μM concentrations; see FIG. 1. […] The colony forming assay was performed as follows.
Colony Forming Efficiency Assay. All cell lines used in this assay have already been optimized with respect to the number of feeder cells and length of incubation time for observable colony formation. Cells were washed, harvested, and replated in quadruplicate at appropriate dilution into 60 mm plastic Petri dishes. The Petri dishes were prepared not more than 24 hr in advance with 4 ml of supplemented Eagle's minimum essential medium containing 5-10% fetal bovine serum (standardized for each cell line) for all cell lines. Cells were incubated for the previously standardized number of days in a 95% air/5% CO2 atmosphere. The plates were stained with 0.125% crystal violet in methanol and counted. Results are expressed as the surviving fraction of an appropriate control.

[2] = tested on: DU-145 human prostate tumor xenografts; test: Subcutaneous DU-145 prostate tumor xenograft in mice; type: in vivo, male NCr-nu mice; details: for Days Delay (T-C) / Non-Specific Deaths/Total / Tumor Free Survival/Total / Tumor Regression, Number of Complete / Tumor Regression, Number of Partial / Days to 4 Doublings / % T/C, Day 21 (median tumor weight) / % T/C, Day 35 (median tumor weight) / median tumor growth delay [(T-C)/C x 100] / tolerability / deaths: 6.25 mg/kg IV; for Days Delay (T-C) / Non-Specific Deaths/Total / Tumor Free Survival/Total / Tumor Regression, Number of Complete / Tumor Regression, Number of Partial / Days to 4 Doublings / % T/C, Day 21 (median tumor weight) / % T/C, Day 35 (median tumor weight): Q1D x 5 day 14, 28; for Days to 4 Doublings: control 17.1; for % T/C, Day 21 (median tumor weight): three days after first round; for % T/C, Day 35 (median tumor weight): three days after second round; for median tumor growth delay [(T-C)/C x 100]: two rounds, statistically significant; for antitumor activity (summary): at a dosage which was well tolerated (6.25 mg/kg IV)
Procedure: Response of implanted sc DU-145 prostate tumors to treatment with SL-11159 and SL-11226. This experiment evaluates the antitumor efficacy of SLIL Biomedical Corporation compounds (SL-11159, SL-11226) against subcutaneously-implanted DU-145 human prostate tumor xenografts in male NCr-nu (line 3A10F17T1) mice. All compounds were tested at a single dose level when administered intravenously (iv), at 6.25 mg/kg. Both SL-11159 and SL-11226 were prepared in water for injection (soluble); the injection volume was 0.1 mL/10 g body weight.
All compounds were administered for two rounds of five daily treatments with a nine-day rest period between the rounds. The control group was treated with vehicle (water for injection) for two rounds on a Q1D×5 schedule. There were sixteen mice in the control group and eight mice in each of the treatment groups. All treatments were initiated on day 14 postimplant when all mice had established tumors ranging in size from 75 to 198 mg. The experiment was terminated on day 53 after tumor implantation. The individual animal's time to reach the evaluation size (time to reach four doublings) was used in the calculations of the median tumor growth delay [(T−C)/C×100, %] and as the endpoint in a life tables analysis (stratified Kaplan-Meier estimation followed by the Mantel-Haenszel log-rank test) in order to statistically compare the growth data between groups (see Table 5; group 1 is the control group, group 2 was treated with SL-11159, group 3 was treated with SL-11226).
The time required for a tumor to double in mass is calculated based on the initial tumor weight at the beginning of the treatment period. When the initial tumor weight has been selected, tumor weights are then examined, beginning with the last recorded value, until a doubling is calculated. Examination from the last recorded value is to ensure that the doubling time is calculated during the final phase of tumor growth and not prior to a tumor regression. Values between measurements are calculated by exponential […], and a value may be estimated after the final measured weight provided the extrapolated value occurs prior to the animal's death.)
Control tumors grew well in fourteen out of sixteen mice. There was one xenograft failure (no-take). One animal died during the second round of the vehicle treatment, on day 29, with a tumor weight of 770 mg. Tumors reached the evaluation size of four mass doublings in 17.1 days, which covers the period of the first round of treatment and three days of the second round of treatment. The effect of each round of treatment was evaluated by the comparison of the median tumor weight of the treated groups on days 21 or 35 (three days after the end of the first or the second round of treatment, respectively) to the median tumor weight of the control group on the same day (T/C×100%, see Table 4A).
Tumor regression was scored (excluding nonspecific deaths), according to the smallest tumor size attained after the beginning of treatment relative to the size at first treatment: • partial: <50 percent of its size at 1 st rx, but not complete. • complete: tumor becomes unpalpable.
Duration of regression: the interval during which a tumor classified as a partial or complete regressor was below 50 percent of its size at first treatment.
Evaluation size: this value is the tumor mass selected at four mass doublings beginning with the initial tumor size at the start of treatment.
T−C (days): the difference in the median of times postimplant for tumors of the treated groups to attain an evaluation size compared to the median of the control group.

SMILES	logs of cells killed (colony survival) [1]	Days Delay (T-C) [2] [days]	Non-Specific Deaths/Total [2]	Tumor Free Survival/Total [2]	Tumor Regression, Number of Complete [2]	Tumor Regression, Number of Partial [2]	Days to 4 Doublings [2] [days]	% T/C, Day 21 (median tumor weight) [2] [%]	% T/C, Day 35 (median tumor weight) [2] [%]	median tumor growth delay [(T-C)/C x 100] [2] [%]	antitumor activity (summary) [2]	tolerability / deaths ([2]; first round of treatment)	tolerability / deaths ([2]; second round of treatment)	tolerability / deaths ([2]; whole treatment (two rounds))
CCNCCCCNCCCCNCCCCNCCCCNCCCCNCCCCNCCCCNCCCCNCCCCNCC.Cl.Cl.Cl.Cl.Cl.Cl.Cl.Cl.Cl.Cl [SL-11159]	four	>6.9	1/8	0/8	0	0	>24.0	65	63	> 40	measurable antitumor activity	well tolerated without deaths	death of one animal	
CCNCCCCNCCCCNCCCCNCCCCNCCCCNCCCCNCCCCNCCCCNCCCCNCCCCNCCCCNCC.Cl.Cl.Cl.Cl.Cl.Cl.Cl.Cl.Cl.Cl.Cl.Cl [SL-11226]		>6.4	0/8	0/8	0	0	>23.5	46	61	> 37	measurable antitumor activity			well tolerated without deaths
